Tests used:
[1] = Cytotoxicity / antiproliferative activity, crystal violet viability assay; assay type: cell-based, human; conditions: human, HCT-116 colon carcinoma cells; HCT-116 cells, 3 days incubation, crystal violet absorbance at 590 nm relative to DMSO control, triplicate; read-out: IC50 (cytotoxicity against HCT-116)
Description: (§1) Because known indolotryptolines are potent human cell line toxins, lazarimide C, novel compounds 6 and 7, as well as cladoniamide A as a control, were tested for cytotoxicity against HCT-116 human colon carcinoma cancer cells.
(§2) The compounds were tested for antiproliferative activity in triplicate using the colon carcinoma cell line HCT-116 (ATCC; CCL-247) [See Brattain et al., “Heterogeneity of malignant cells from a human colonic carcinoma.” Cancer Res. 41(5):1751-1756(1981), incorporated herein by reference in its entirety]. For assays, frozen HCT-116 cells were thawed and grown in McCoy's 5A Modified Medium (Gibco) supplemented with 10% (v/v) FBS. Cells were sub-cultured once, and then cells in log phase growth were harvested by trypsinization. Trypsinized cells were seeded into 96-well plates (1,000 cells/well) and incubated overnight at 37° C. in the presence of 5% CO2. Compounds 6, 7, lazarimide C and cladoniamide (10 mg/mL in DMSO) were sequentially diluted in culture media (2-fold dilution starting at 50 μg/mL) across a 96-well plate and 100 μL was transferred to the appropriate well in an assay plate. The plates were incubated at 37° C. for 3 days and then evaluated for viability using a crystal violet-based colorimetric assay [See Zivadinovic et al., “Membrane estrogen receptor-alpha levels in MCF-7 breast cancer cells predict cAMP and proliferation responses.” Breast Cancer Res. 7(1):R101-112 (2005)]. Cell viability was recorded based on the absorbance at 590 nm in compound treated well relative to DMSO control wells.

[2] = tested on: HCT-116 human colon carcinoma cancer cells; test: as above; assay type: cell-based; conditions: HCT-116 cells, 3 days incubation, crystal violet absorbance at 590 nm relative to DMSO control, triplicate; read-out: IC50 (cytotoxicity against HCT-116)
Description: as §1, §2

Work on `COc1c2n(c3cc(Cl)c(O)cc13)[C@]1(O)C(=O)N(C)C(=O)[C@]1(O)c1c-2[nH]c2ccc(Cl)cc12` [Compound 7, lazarimide A] yielded an IC50 at 3 days [1] of 8.4 nM.

Molecule `COc1c2n(c3ccccc13)[C@]1(O)C(=O)N(C)C(=O)[C@]1(O)c1c-2[nH]c2ccc(Cl)cc12` [cladoniamide A, reference compound] has an IC50 [2] of 40.4 nM.

With `CN1C(=O)[C@@]2(O)c3c([nH]c4cc(Cl)ccc34)-c3[nH]c4ccc(Cl)cc4c3[C@@]2(O)C1=O` [lazarimide C] the IC50 at 3 days [1] was 25800 nM.

`COc1c2n(c3cc(Cl)ccc13)[C@]1(O)C(=O)N(C)C(=O)[C@]1(O)c1c-2[nH]c2ccc(Cl)cc12` [Compound 6, lazarimide B] showed an IC50 at 3 days [1] of 11.6 nM.

Reference: patent US20180193321A1, “INDOLO[…]” (The Rockefeller University, priority 2015, published 2018)
